Patent US9175007B2, “IRAK inhibitors and uses thereof” (Nimbus Iris, Inc., priority 2013, dated 2015)

Key:
[1] = system: IL8 production in THP-1 cells; test: LPS induced IL8 production assay in THP-1 cells; format: cell-based; details: Homo sapiens, 300 ng/mL LPS
Description: (§1) Provided compounds were also assayed in an LPS (Lipopolysacharide) or R848 (TLR-7 agonist) induced cytokine (TNFα and IL8) production assay in THP-1 cells, human peripheral blood mononuclear cells (hPBMC), and whole blood. The exemplary protocol for this assay in THP-1 cells was as follows below.
(§2) THP-1 cells from ATCC (TIB-202) were cultured in RPMI Medium 1640 (Invitrogen, Cat No. A10491-01), 10% fetal bovine serum (Invitrogen, Cat No. 10099141, Lot No. 8172882) containing 100 U/mL Penicillin, 100 μg/mL streptomycin (Invitrogen, Cat No. 15140-122), and 50 uM 2-Mercaptoethanol (Invitrogen, Cat No. 21985023). LPS-EK ultra pure (Invivogen, Cat No. tlrl-peklps) was used to induce IL8 and TNFα production, that was detected in the cell culture supernatant by IL8 HTRF kit (Cisbio, Cat No. 62IL8PEB) and TNFα HTRF kit (Cisbio, Cat No. 62TNFPEB), as per manufacturer instructions. Cells were cultured in 96 well assay plates at 100,000 cells per well, and compounds diluted in final 0.3% DMSO were pre-incubated with cells for 1 hour prior to stimulation with 300 ng/mL LPS. Cytokine production in cell supernatant was measured at 5 hours for TNFα and IL8 production, and for 16 hours for IL8 production and assessment of cell viability.

[2] = system: TNFα production in THP-1 cells; test: LPS induced TNFα production assay in THP-1 cells; format: cell-based; details: Homo sapiens, 300 ng/mL LPS
Description: as §1, §2

IRAK4 = biological target: T1, IRAK4 (Homo sapiens, UniProt Q9NWZ3); test: IRAK-4 activity inhibition assay (Caliper); format: biochemical; details: 3.5 nM IRAK4, 37 μM ATP, 1.5 μM Peptide 8
T1 construct: purchased CARNA Bioscience 09-145
T1 sequence (Q9NWZ3 1-460): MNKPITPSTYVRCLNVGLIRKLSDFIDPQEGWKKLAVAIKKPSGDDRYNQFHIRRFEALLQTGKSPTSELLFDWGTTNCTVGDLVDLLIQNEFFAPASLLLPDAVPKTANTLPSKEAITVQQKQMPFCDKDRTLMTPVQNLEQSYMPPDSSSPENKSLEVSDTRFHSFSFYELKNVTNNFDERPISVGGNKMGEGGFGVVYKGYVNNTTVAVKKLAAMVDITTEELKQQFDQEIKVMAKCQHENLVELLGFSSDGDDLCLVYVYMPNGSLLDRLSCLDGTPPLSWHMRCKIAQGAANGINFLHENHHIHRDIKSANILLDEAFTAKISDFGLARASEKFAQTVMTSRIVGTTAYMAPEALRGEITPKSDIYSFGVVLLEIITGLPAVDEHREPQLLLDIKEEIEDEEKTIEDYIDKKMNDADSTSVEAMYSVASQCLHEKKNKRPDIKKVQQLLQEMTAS
Description: A 1× kinase base buffer was prepared from 50 mM HEPES, pH 7.5 and 0.0015% Brij-35. A stop buffer was prepared from 100 mM HEPES, pH 7.5, 0.015% Brij-35, 0.2% Coating Reagent #3, and 50 mM EDTA.
Test compound was diluted to 50× of the final desired highest inhibitor concentration in reaction by 100% DMSO. 100 ul of this compound dilution was transferred to a well in a 96-well plate.
Test compound was serially diluted by transferring 30 μl to 60 μl of 100% DMSO in the next well and so forth for a total of 10 concentrations. 100 μl of 100% DMSO was added to two empty wells for no compound control and no enzyme control in the same 96-well plate.
A new 96-well plate was marked as intermediate plate. 5 μl of compound serial dilution was transferred from source plate to the corresponding wells of the intermediate plate. 45 μl of 1× kinase base buffer (KB buffer) was added to each well of the intermediate plate. The intermediate plate was placed for 10 min on a shaker.
5 μl of each well was transferred from the 96-well intermediate plate to a 384-well plate in duplicates. For example, A1 of the 96-well plate is transferred to A1 and A2 of the 384-well plate. A2 of the 96-well plate is transferred to A3 and A4 of the 384-well plate, and so on.
IRAK4 and DTT in 1× kinase base buffer was added. The 2.5× enzyme mix contained 8.8 nM IRAK4 and 5 mM DTT.
Peptide 8, ATP, MgCl2 and MnCl2 were added in the 1× kinase base buffer. The 2.5× peptide mix contained 3.75 μM peptide 8, 92.5 μM ATP, 12.5 mM MgCl2 and 2.5 mM MnCl2.
Assay plate already contained 5 μl of compound in 10% DMSO. Added 10 μl of 2.5× enzyme solution to each well of the 384-well assay plate, except no enzyme control wells. The final concentration of IRAK4 in reaction was 3.5 nM. Added 10 μl of 1× kinase base buffer to no enzyme control wells in the assay plate. Incubated at room temperature for 10 min.
Added 10 μl of 2.5× peptide solution to each well of the 384-well assay plate. The final concentration of Peptide 8 and ATP was 1.5 μM and 37 μM, respectively. Incubated at 28° C. for 40 minutes. Added 25 μl of stop buffer to stop reaction. Collected data on Caliper.
Copied conversion % data from Caliper program. Converted conversion % values to percent inhibition values. Percent inhibition=(max-conversion %)/(max-min)*100, where “max” means the conversion % of DMSO control and “min” means the conversion % of no enzyme control.

[3] = system: TNF-α production in whole blood; test: In vitro R848-induced TNF-α production in whole blood; format: cell-based; details: Homo sapiens, R848 1 uM

| IC50 [1] [µM] | IC50 [2] [µM] | IC50 (IRAK4) [µM] | IC50 [3] [µM] | SMILES |
| --- | --- | --- | --- | --- |
| ≤ 0.5 | ≤ 0.5 | ≤ 5 |  | Cn1cc(Nc2nc(N[C@H]3CC[C@H](N4CCOCC4)CC3)c3c4c(sc3n2)CCC4)cn1 [Compound I-74, 10-N-(1-methyl-1H-pyrazol-4-yl)-12-N-[4-(morpholin-4-yl)cyclohexyl]-7-thia-9,11-diazatricyclo[6.4.0.0[2,6]]dodeca-1(8),2(6),9,11-tetraene-10,12-diamine] |
| ≤ 0.5 | ≤ 0.5 | ≤ 5 |  | Cn1cc(Nc2nc(O[C@H]3CC[C@H](N(C)C)CC3)c3c4c(sc3n2)CCC4)cn1 [Compound I-14, 12-[[4-(dimethylamino)cyclohexyl]oxy]-N-(1-methyl-1H-pyrazol-4-yl)-7-thia-9,11-diazatricyclo[6.4.0.0[2,6]]dodeca-1(8),2(6),9,11-tetraen-10-amine] |
| ≤ 0.5 | ≤ 0.5 | ≤ 5 |  | c1nscc1Nc1nc(N[C@H]2CC[C@H](N3CCOCC3)CC2)c2c3c(sc2n1)CCC3 [Compound I-76] |
|  |  | ≤ 5 | ≥ 1 | Cn1cc(Nc2nc(O[C@H]3CC[C@H](N(C)C)CC3)c3c4c(sc3n2)CC[C@@H]4CC(N)=O)cn1 [Compound I-22, 2-[(3R)-12-[[4-(dimethylamino)cyclohexyl]oxy]-10-[(1-methyl-1H-pyrazol-4-yl)amino]-7-thia-9,11-diazatricyclo[6.4.0.0[2,6]]dodeca-1(8),2(6),9,11-tetraen-3-yl]acetamide] |
| 1 to 5 | 1 to 5 | ≤ 5 |  | CN(C)[C@H]1CC[C@H](Nc2nc(Nc3ccccc3)nc3sc4c(c23)CCC4)CC1 [Compound I-75, 12-N-[4-(dimethylamino)cyclohexyl]-10-N-phenyl-7-thia-9,11-diazatricyclo[6.4.0.0[2,6]]dodeca-1(8),2(6),9,11-tetraene-10,12-diamine] |
| ≤ 0.5 | ≤ 0.5 | ≤ 5 |  | CN(C)[C@H]1CC[C@H](Oc2nc(Nc3ccccc3)nc3sc4c(c23)[C@@H](CC(N)=O)CC4)CC1 [Compound I-24, 2-[(3R)-10-(phenylamino)-12-[[(1r,4r)-4-(dimethylamino)cyclohexyl]oxy]-7-thia-9,11-diazatricyclo[6.4.0.0[2,6]]dodeca-1(8),2(6),9,11-tetraen-3-yl]acetamide] |
| ≤ 0.5 | ≤ 0.5 | ≤ 5 |  | c1nocc1Nc1nc(N[C@H]2CC[C@H](N3CCOCC3)CC2)c2c3c(sc2n1)CCC3 [Compound I-77] |
| ≤ 0.5 | ≤ 0.5 | ≤ 5 |  | Cn1cc(Nc2nc(N[C@H]3CC[C@H](N(C)C)CC3)c3c4c(sc3n2)CCC4)cn1 [Compound I-72, 12-N-[4-(dimethylamino)cyclohexyl]-10-N-(1-methyl-1H-pyrazol-4-yl)-7-thia-9,11-diazatricyclo[6.4.0.0[2,6]]dodeca-1(8),2(6),9,11-tetraene-10,12-diamine] |
|  |  | ≤ 5 | ≥ 1 | Cn1cc(Nc2nc(O[C@H]3CC[C@H](N4CCOCC4)CC3)c3c4c(sc3n2)CC[C@@H]4CC(N)=O)cn1 [Compound I-25] |
| ≤ 0.5 | 0.5 to 1 | ≤ 5 |  | Cn1cc(Nc2nc(O[C@H]3CC[C@H](N4CCOCC4)CC3)c3c4c(sc3n2)CCC4)cn1 [Compound I-73, N-(1-methyl-1H-pyrazol-4-yl)-12-[[4-(morpholin-4-yl)cyclohexyl]oxy]-7-thia-9,11-diazatricyclo[6.4.0.0[2,6]]dodeca-1(8),2(6),9,11-tetraen-10-amine] |
|  |  | ≤ 5 |  | CN(C)[C@H]1CC[C@H](Oc2nc(Nc3ccccc3)nc3sc4c(c23)CCC4)CC1 [Compound I-2, 12-[[4-(dimethylamino)cyclohexyl]oxy]-N-phenyl-7-thia-9,11-diazatricyclo[6.4.0.0[2,6]]dodeca-1(8),2(6),9,11-tetraen-10-amine] |
|  |  | ≤ 5 |  | c1ccc(Nc2nc(N[C@H]3CC[C@H](N4CCOCC4)CC3)c3c4c(sc3n2)CCC4)cc1 [Compound I-1, N4-((1r,4r)-4-morpholinocyclohexyl)-N2-phenyl-6,7-dihydro-5H-cyclopenta[4,5]thieno[2,3-d]pyrimidine-2,4-diamine] |
|  |  | 20 to 50 |  | Cc1ccc(Nc2nc(N[C@H]3CC[C@H](N4CCOCC4)CC3)c3c4c(sc3n2)CCC4)cc1 [Compound I-6, N4-((1r,4r)-4-morpholinocyclohexyl)-N2-(p-tolyl)-6,7-dihydro-5H-cyclopenta[4,5]thieno[2,3-d]pyrimidine-2,4-diamine] |

| SMILES | IC50 [1] [µM] | IC50 [2] [µM] | IC50 (IRAK4) [µM] | IC50 [3] [µM] |
| --- | --- | --- | --- | --- |
| CN1CCN(c2ccc(Nc3nc(O[C@H]4CC[C@H](N(C)C)CC4)c4c5c(sc4n3)CC[C@@H]5CC(N)=O)cc2)CC1 [Compound I-23] | ≥ 5 | 1 to 5 | ≤ 5 |  |
| CN1CCN(c2ccc(Nc3nc(O[C@H]4CC[C@H](N(C)C)CC4)c4c5c(sc4n3)CCC5CC(N)=O)cc2)CC1 (stereo partly drawn) [Compound I-19, 2-(4-(((1r,4r)-4-(dimethylamino)cyclohexyl)oxy)-2-((4-(4-methylpiperazin-1-yl)phenyl)amino)-6,7-dihydro-5H-cyclopenta[4,5]thieno[2,3-d]pyrimidin-5-yl)acetamide] | ≥ 5 |  | ≤ 5 |  |
